Test results: ChEMBL document CHEMBL3638997, “5-alkynyl-pyrimidines” (2013)
pIC50: −log10 of the molar value.

Molecular target: Phosphatidylinositol 4,5-bisphosphate 3-kinase catalytic subunit alpha isoform (Homo sapiens, UniProt P42336)
Experiment: Filter-Binding-Assay: PI3Kalpha assay described herein provides IC50 values indicating the activity of the compounds inhibiting PI3 kinase alpha activity Inhibition of PI3 kinase is expected to be indicative of activity in treating conditions of excessive or anomalous cell proliferation, such as cancers. See also J. A. Engelman, Nature Reviews Cancer, 2009, 9, 550-562; A. Carnero, Expert Opin. …

Sequence of Phosphatidylinositol 4,5-bisphosphate 3-kinase catalytic subunit alpha isoform (P42336 whole entry, canonical isoform): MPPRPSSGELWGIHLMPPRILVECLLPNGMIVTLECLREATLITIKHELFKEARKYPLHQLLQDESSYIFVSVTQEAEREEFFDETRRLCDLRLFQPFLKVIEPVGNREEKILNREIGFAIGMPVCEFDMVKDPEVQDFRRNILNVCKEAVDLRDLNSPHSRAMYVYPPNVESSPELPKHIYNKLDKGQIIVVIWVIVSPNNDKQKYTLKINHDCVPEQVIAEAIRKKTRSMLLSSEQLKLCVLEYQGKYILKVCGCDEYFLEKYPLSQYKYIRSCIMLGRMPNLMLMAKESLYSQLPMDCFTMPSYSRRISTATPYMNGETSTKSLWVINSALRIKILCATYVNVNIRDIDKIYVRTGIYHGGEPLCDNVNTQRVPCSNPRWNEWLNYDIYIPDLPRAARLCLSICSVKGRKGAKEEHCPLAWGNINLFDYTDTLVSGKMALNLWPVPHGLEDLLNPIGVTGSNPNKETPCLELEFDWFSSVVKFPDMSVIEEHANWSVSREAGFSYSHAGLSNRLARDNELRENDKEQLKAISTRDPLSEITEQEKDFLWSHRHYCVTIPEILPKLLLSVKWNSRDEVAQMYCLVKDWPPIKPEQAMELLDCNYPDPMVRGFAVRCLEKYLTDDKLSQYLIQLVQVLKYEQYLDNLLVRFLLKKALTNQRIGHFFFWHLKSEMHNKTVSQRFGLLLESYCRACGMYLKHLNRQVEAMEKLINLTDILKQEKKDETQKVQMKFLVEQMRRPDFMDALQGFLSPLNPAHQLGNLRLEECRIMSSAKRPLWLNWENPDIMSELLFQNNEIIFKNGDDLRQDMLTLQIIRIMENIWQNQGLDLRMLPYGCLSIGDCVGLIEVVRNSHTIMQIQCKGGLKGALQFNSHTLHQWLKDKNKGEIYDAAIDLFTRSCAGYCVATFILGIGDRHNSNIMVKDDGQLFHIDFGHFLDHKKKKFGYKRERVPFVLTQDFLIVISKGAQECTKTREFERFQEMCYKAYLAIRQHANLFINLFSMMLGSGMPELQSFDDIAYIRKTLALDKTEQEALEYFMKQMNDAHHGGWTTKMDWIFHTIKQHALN

CCc1ncnc(N2CCC(O)(CC)CC2)c1C#Cc1ccc(N)nc1
pIC50: 7.82
